Drawing on PubChem BioAssay (NCI), this text covers TGI and GI50 for 18 molecules.

The structures appear in SMILES notation.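 Protocol summary: plate cells (96-well), add compound at 5 concentrations, incubate 48 h, interpolate endpoints linearly. GI50 = concentration required for 50% inhibition of growth. TGI denotes the concentration required for complete inhibition of growth.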

Test systems include NCI-H522 lung; SF-539 CNS; UO-31 renal; CAKI-1 renal; SW-620 colon; K-562 leukemia; HOP-62 NSCLC; MOLT-4 leukemia; HCT-116 colon; UACC-257 melanoma.
Assay in all cases: NCI-60 cell line screen, 48 h

For the molecule `NC1=NS(=O)(=O)Nc2nc(-c3cccs3)[nH]c21`, the TGI in the assay on NCI-H522 lung, in the assay on SF-539 CNS, with UO-31 renal, with CAKI-1 renal, in the assay on SW-620 colon and with K-562 leukemia was more than 100 µM throughout. In addition, the TGI in the assay with HOP-62 NSCLC, with MOLT-4 leukemia and in the assay on HCT-116 colon was more than 100 µM in each case.
With `C=C1C(=O)OC2/C=C(\C)CC(O)/C=C(/CO)CC(OC(=O)/C(C)=C/C)C12` (stereo unspecified), the TGI amounted to 26.4 µM in the assay with NCI-H522 lung; 115 µM with SF-539 CNS; 439 µM in the assay on UO-31 renal; 238 µM in the assay with CAKI-1 renal; 50.3 µM with SW-620 colon; 202 µM in the assay on UACC-257 melanoma. In addition, the TGI with K-562 leukemia came out at 64.4 µM; in the assay with HOP-62 NSCLC it was 246 µM; in the assay with MOLT-4 leukemia, 43.8 µM; in the assay with HCT-116 colon it was 115 µM.
On to `O=C(/N=C/c1c(O)c2ccccc2oc1=O)NC1CCCCC1`, for which the TGI with SF-539 CNS, with UO-31 renal, in the assay with SW-620 colon, in the assay with UACC-257 melanoma, with HOP-62 NSCLC and in the assay on MOLT-4 leukemia was more than 100 µM in each case. Moreover, the TGI in the assay on HCT-116 colon was more than 100 µM.
In the case of `CC(O)=NC(Cc1ccc2ccccc2c1)C(O)=NC(Cc1ccc(Cl)cc1)C(O)=NC(Cc1c[nH]c2ccccc12)C(O)=NC(CO)C(O)=NC(Cc1ccc(O)cc1)C(O)=NC(CCCN=C(N)N)C(O)=NC(CC(C)C)C(O)=NC(CCCN=C(N)N)C(=O)N1CCCC1C(O)=NC(C)C(=N)O` (stereo unspecified), the TGI was 93 µM in the assay with NCI-H522 lung; 99.7 µM with SF-539 CNS; 63.1 µM in the assay with UO-31 renal; more than 100 µM in the assay on CAKI-1 renal; more than 100 µM in the assay with SW-620 colon; more than 100 µM in the assay on UACC-257 melanoma. The TGI in the assay with K-562 leukemia, in the assay with HOP-62 NSCLC and in the assay with MOLT-4 leukemia was more than 100 µM each time.
Consider `Cc1onc(-c2c(F)cccc2Cl)c1C(=O)N[C@@H]1C(=O)N2[C@@H]1SC(C)(C)[C@@H]2C(=O)O`, for which the TGI in the assay with NCI-H522 lung is more than 100 µM; in the assay with SF-539 CNS, more than 100 µM; with UO-31 renal, 67.4 µM; with CAKI-1 renal, more than 100 µM; in the assay with SW-620 colon it was more than 100 µM; in the assay on UACC-257 melanoma, more than 100 µM. In addition, the TGI in the assay with K-562 leukemia, in the assay with HOP-62 NSCLC and in the assay with HCT-116 colon was more than 100 µM in each case.
For the molecule `CC(C)Cc1cccc(C(C)C)c1NC(=O)CCC(=O)N/N=C1\C(=N/NC(=O)CCC(=O)Nc2c(C(C)C)cccc2C(C)C)C(c2ccc3c(c2)OCO3)Oc2ccccc21` (stereo unspecified), the TGI with NCI-H522 lung, in the assay on SF-539 CNS, with UO-31 renal, in the assay with CAKI-1 renal, in the assay on SW-620 colon and in the assay on UACC-257 melanoma was more than 100 µM in each case. The TGI in the assay with K-562 leukemia, in the assay on HOP-62 NSCLC, with MOLT-4 leukemia and in the assay on HCT-116 colon was more than 100 µM each time.
Turning to `FC(F)(F)C1=NC(=NNc2nnc(-c3ccccc3)c(-c3ccccc3)n2)N=C(C(F)(F)F)C1`, the TGI with NCI-H522 lung was 53.6 µM; with SF-539 CNS it was more than 100 µM; with UO-31 renal, 29.1 µM; in the assay on CAKI-1 renal, more than 100 µM; with SW-620 colon it was more than 100 µM; with UACC-257 melanoma, more than 100 µM. Also, the TGI in the assay with K-562 leukemia is more than 100 µM; in the assay on HOP-62 NSCLC, more than 86.7 µM; with MOLT-4 leukemia, more than 100 µM; with HCT-116 colon, more than 93.6 µM.
`CS(=O)(=O)OCc1c(O)c2c(c(O)c1COS(C)(=O)=O)C(=O)C=CC2=O`: the TGI with NCI-H522 lung, with SF-539 CNS, in the assay on UO-31 renal, in the assay on CAKI-1 renal, in the assay with SW-620 colon and in the assay with UACC-257 melanoma was more than 100 µM in each case. Further, the TGI in the assay with K-562 leukemia, in the assay on HOP-62 NSCLC, in the assay on MOLT-4 leukemia and with HCT-116 colon was more than 100 µM each time.
Consider `O=c1cc(-c2nc3ccccc3[nH]2)[nH]c2nc(-c3nc4ccccc4[nH]3)cc(-c3ccc(Cl)cc3)c12`, for which the TGI with NCI-H522 lung is 26.1 µM; in the assay with SF-539 CNS, 31.8 µM; with UO-31 renal it was 33 µM; in the assay with CAKI-1 renal, 76 µM; in the assay on SW-620 colon it was 54.1 µM; with UACC-257 melanoma it was 69.3 µM. In addition, the TGI stood at 68.8 µM with K-562 leukemia, 54.7 µM in the assay with HOP-62 NSCLC, 96.4 µM in the assay with MOLT-4 leukemia and 35.2 µM in the assay on HCT-116 colon.
As for `CN(C)CCC(C(=O)C(C)(C)C)c1ccccn1` (stereo unspecified), the TGI in the assay on NCI-H522 lung, with UO-31 renal, with CAKI-1 renal, with SW-620 colon, in the assay with UACC-257 melanoma and in the assay with K-562 leukemia was more than 100 µM throughout. The TGI in the assay with HOP-62 NSCLC and with HCT-116 colon was more than 100 µM in each case.
As for `C[C@H](O)C(=O)SC[C@H](NC(=O)CC[C@@H](N)C(=O)O)C(=O)NCC(=O)O`, the TGI in the assay with NCI-H522 lung, with UO-31 renal, in the assay on CAKI-1 renal, in the assay with SW-620 colon, in the assay with UACC-257 melanoma and in the assay with K-562 leukemia was more than 100 µM each time. Also, the TGI in the assay with HOP-62 NSCLC, in the assay with MOLT-4 leukemia and with HCT-116 colon was more than 100 µM each time.
As for `COc1c2ccoc2c(S(=O)(=O)Nc2ccc(Cl)cc2)c2oc(C)cc(=O)c12`, the TGI with NCI-H522 lung was more than 100 µM; in the assay with SF-539 CNS, more than 93.9 µM; in the assay on UO-31 renal, more than 100 µM; in the assay with CAKI-1 renal it was more than 95.9 µM; with SW-620 colon, more than 100 µM; in the assay on UACC-257 melanoma it was more than 100 µM. Also, the TGI in the assay on K-562 leukemia is more than 100 µM; in the assay with HOP-62 NSCLC, more than 100 µM; with MOLT-4 leukemia, more than 100 µM; in the assay on HCT-116 colon, more than 89.2 µM.
Turning to `COc1ccc(-n2cc(-c3ccc(OC)c(OC)c3)nc2SCc2ccccc2)cc1Cl`, the GI50 in the assay on NCI-H522 lung was 13.2 µM; in the assay on SF-539 CNS, 24.5 µM; in the assay on UO-31 renal, 15.2 µM; with CAKI-1 renal it was 41.7 µM; in the assay with SW-620 colon, 29.9 µM; in the assay on UACC-257 melanoma it was 7.23 µM. Further, the GI50 with K-562 leukemia was 9.05 µM; in the assay on HOP-62 NSCLC, 28.3 µM; in the assay with MOLT-4 leukemia, 21.2 µM; in the assay with HCT-116 colon, 9.43 µM. Besides, the TGI with NCI-H522 lung is 98.4 µM; in the assay with SF-539 CNS, 79.5 µM; in the assay on UO-31 renal, more than 100 µM; in the assay with CAKI-1 renal, more than 100 µM; in the assay with SW-620 colon, more than 100 µM; in the assay with UACC-257 melanoma, 38.3 µM. For the same molecule, the TGI in the assay with K-562 leukemia was 39.3 µM; in the assay with HOP-62 NSCLC it was more than 100 µM; in the assay with MOLT-4 leukemia, more than 100 µM; with HCT-116 colon, more than 100 µM.
As to `ClCC1(CCl)COC1`, the TGI in the assay with NCI-H522 lung, in the assay with UO-31 renal, in the assay on SW-620 colon, in the assay with UACC-257 melanoma, in the assay with K-562 leukemia and in the assay with MOLT-4 leukemia was more than 100 µM in each case. The molecule further gave a TGI in the assay on HCT-116 colon of more than 100 µM.
In the case of `Oc1ccc2ccccc2c1Cc1c(O)ccc2ccccc12`, the TGI was found to be 26 µM with NCI-H522 lung; 42.2 µM in the assay with SF-539 CNS; 32.2 µM in the assay on UO-31 renal; 33.9 µM in the assay with CAKI-1 renal; 39.9 µM in the assay with SW-620 colon; 48.9 µM with UACC-257 melanoma. The TGI in the assay on K-562 leukemia was 32.8 µM; in the assay with HOP-62 NSCLC, 41.4 µM; with MOLT-4 leukemia, 36.9 µM; in the assay with HCT-116 colon, 34.4 µM.
Consider `CCCC(=O)OCC(O)CO` (stereo unspecified), for which the TGI with NCI-H522 lung, in the assay with SF-539 CNS, in the assay on UO-31 renal, in the assay on CAKI-1 renal, in the assay with SW-620 colon and with UACC-257 melanoma was more than 5000 µM throughout. The TGI with K-562 leukemia, in the assay on HOP-62 NSCLC, in the assay on MOLT-4 leukemia and in the assay on HCT-116 colon was more than 5000 µM in each case.
In the case of `C[C@]12CC[C@H](O)CC1=CC[C@@H]1[C@@H]2CC[C@]2(C)C(=O)CC[C@@H]12`, the TGI with NCI-H522 lung, in the assay with SF-539 CNS, with UO-31 renal, in the assay with CAKI-1 renal, in the assay on SW-620 colon and in the assay on UACC-257 melanoma was more than 100 µM throughout. The TGI with MOLT-4 leukemia and in the assay with HCT-116 colon was more than 100 µM in each case.
`CO[C@]12C[C@H](CNC(=O)c3cc(Br)c(Br)[nH]3)O[C@H]1NC(=O)N2`: the TGI in the assay with NCI-H522 lung, with SF-539 CNS, with UO-31 renal, in the assay with CAKI-1 renal, in the assay on SW-620 colon and in the assay on UACC-257 melanoma was more than 100 µM in each case. Also, the TGI in the assay on K-562 leukemia, with HOP-62 NSCLC, with MOLT-4 leukemia and in the assay with HCT-116 colon was more than 100 µM each time.
